# Test results reported in patent US11008346B2, “Beta-lactamase inhibitors” (priority 2014, dated 2021).
# Experiments:
# SHV-5 β-lactamase = biological target: T1, SHV-5 β-lactamase (Klebsiella pneumoniae, UniProt P0A3M1); test: β-lactamase enzyme inhibition, SHV-5; type: biochemical
# T1 construct: made in house; host or cells: E. coli BL21(DE3)
# How it was run: (§1)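 Native untagged enzymes expressed in E. coli BL21(DE3) and purified by cation exchange and gel filtration were preincubated with inhibitor for 15 min at 37° C. Hydrolysis was followed for 10 min: nitrocefin (100 μM final, 486 nm) for OXA-1 and p99 AmpC, imipenem (300 nm) for KPC-2, cefotaxime (260 nm) for SHV-5; IC50 from initial rates.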
# KPC-2 β-lactamase = biological target: T2, KPC-2 β-lactamase (Klebsiella pneumoniae, UniProt Q9F663); test: β-lactamase enzyme inhibition, KPC-2; type: biochemical; details: imipenem substrate, 300 nm; 15 min at 37° C. preincubation; read-out: IC50 KPC-2 (Class A)
# T2 construct: made in house; host or cells: E. coli BL21(DE3)
# T2 sequence (Q9F663 25-293, looked up): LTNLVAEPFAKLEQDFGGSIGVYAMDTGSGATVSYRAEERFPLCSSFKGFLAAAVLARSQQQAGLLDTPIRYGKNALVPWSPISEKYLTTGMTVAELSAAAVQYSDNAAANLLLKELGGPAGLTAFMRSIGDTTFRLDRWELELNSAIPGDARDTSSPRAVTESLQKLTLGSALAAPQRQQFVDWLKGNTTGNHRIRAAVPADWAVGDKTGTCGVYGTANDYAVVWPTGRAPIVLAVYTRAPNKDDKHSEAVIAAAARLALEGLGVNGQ
# How it was run: as §1
# [1] = biological target: T3, VIM-2 metallo β-lactamase (Pseudomonas aeruginosa, UniProt Q9K2N0); test: β-lactamase enzyme inhibition, VIM-2; type: biochemical; details: Nitrocefin 100 μM, 486 nm; 15 min at 37° C. preincubation; read-out: IC50 VIM-2 (Class B)
# T3 construct: made in house; host or cells: E. coli BL21(DE3)
# How it was run: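 VIM-2 purified by Q sepharose anion exchange (50 mM Hepes pH 7.5, 0-600 mM NaCl gradient, two runs, >90% purity). Enzyme preincubated with inhibitor 15 min at 37° C; nitrocefin 100 μM final, absorbance at 486 nm followed 10 min. IC50 from initial hydrolysis rates versus inhibitor-free controls.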
# p99 AmpC β-lactamase = biological target: T4, p99 AmpC β-lactamase (Enterobacter cloacae, UniProt P05364); test: β-lactamase enzyme inhibition, p99 AmpC; type: biochemical
# T4 construct: made in house; host or cells: E. coli BL21(DE3)
# T4 sequence (P05364 21-381): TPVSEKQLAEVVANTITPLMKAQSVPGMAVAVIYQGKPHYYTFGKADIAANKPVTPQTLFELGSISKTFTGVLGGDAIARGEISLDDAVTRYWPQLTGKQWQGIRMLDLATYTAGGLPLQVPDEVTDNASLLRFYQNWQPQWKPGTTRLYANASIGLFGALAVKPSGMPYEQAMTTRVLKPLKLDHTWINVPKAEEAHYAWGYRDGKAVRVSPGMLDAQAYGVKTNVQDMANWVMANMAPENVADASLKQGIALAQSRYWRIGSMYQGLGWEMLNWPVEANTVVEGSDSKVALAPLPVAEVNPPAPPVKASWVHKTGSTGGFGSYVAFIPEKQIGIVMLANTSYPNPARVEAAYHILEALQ
# How it was run: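 Native untagged E. cloacae p99 AmpC was expressed in E. coli BL21(DE3) and purified by cation exchange and gel filtration. Enzyme was preincubated with inhibitor at 37°C for 15 min.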
# OXA-1 β-lactamase = biological target: T5, OXA-1 β-lactamase (Escherichia coli, UniProt P13661); test: β-lactamase enzyme inhibition, OXA-1; type: biochemical; details: Nitrocefin 100 μM, 486 nm; 15 min at 37° C. preincubation; read-out: IC50 OXA-1 (Class D)
# T5 construct: made in house; host or cells: E. coli BL21(DE3)
# T5 sequence (P13661 26-276): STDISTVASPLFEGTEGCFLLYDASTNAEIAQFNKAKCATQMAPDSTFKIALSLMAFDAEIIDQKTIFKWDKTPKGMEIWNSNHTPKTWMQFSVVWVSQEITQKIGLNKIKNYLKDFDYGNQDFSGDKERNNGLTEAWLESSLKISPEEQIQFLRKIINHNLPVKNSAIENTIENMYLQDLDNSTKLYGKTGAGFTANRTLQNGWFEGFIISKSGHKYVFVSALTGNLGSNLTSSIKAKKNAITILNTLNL
# How it was run: as §1
# [2] = tested on: E. coli ESBL4 expressing CTX-M-15; test: broth microdilution MIC, E. coli CTX-M-15; type: cell-based; details: Fixed CAZ (ceftazidime) 4 μg/mL
# How it was run: (§2)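 Visual MIC readout after 16-20 hours at 37° C, reflecting compound concentration that restores growth inhibition by a beta-lactam held constant at 4 μg/mL. Compound was titrated 2-fold, 32 to 0.25 μg/mL final, in cation-adjusted Mueller Hinton broth.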
# [3] = tested on: E. cloacae 144200 expressing Class C P99 AmpC; test: broth microdilution MIC, E. cloacae P99; type: cell-based; details: Fixed CAZ (ceftazidime) 4 μg/mL
# How it was run: as §2
# [4] = tested on: K. pneumoniae 156319 expressing KPC-3; test: broth microdilution MIC, K. pneumoniae KPC-3; type: cell-based; details: Fixed Mero (meropenem) 4 μg/mL
# How it was run: as §2
# [5] = tested on: P. aeruginosa Ps296 expressing VIM-2; test: broth microdilution MIC, P. aeruginosa VIM-2; type: cell-based; details: Fixed Mero (meropenem) 4 μg/mL
# Excerpt: (§3) To determine the ability of test compounds to potentiate the inhibition of the growth of bacterial strains that produce beta-lactamase enzymes, classic cell based broth microdilution MIC assays were employed. Six bacteria strains producing beta-lactamase enzymes were used: E. coli expressing the Class A Extended Spectrum Beta-Lactamase (ESBL) CTX-M-15, E. cloacae expressing the Class C P99, K. pneumoniae expressing the Class A carbapenemase KPC-3, P. aeruginosa expressing the Class B carbapenemase VIM-2, K pneumoniae expressing the class A carbapenemase KPC-2 and the class B carbapenemase VIM-4, and S. aureus producing the Class A penicillinase PC-1. The assay was conducted in Cation Adjusted Mueller Hinton Broth (CAMHB, BD #212322, BD Diagnostic Systems, Sparks, Md.). Bacteria strains were grown for 3-5 hours in CAMBH broth. Test compounds were added to a microtiter plate in 2-fold serial dilutions in CAMHB in a final concentration range of 32 μg/mL to 0.25 μg/ml. An overlay of CAMHB containing a Beta-lactam was added to the compounds at a final static concentration of 4 μg/ml. […] In addition to the titration of test compounds the MICs of a panel of control beta-lactams is also tested to ensure the strains are behaving consistently from test to test. Once the test compound and antibiotics are added the plates can be inoculated according to CLSI broth microdilution method. After inoculation the plates are incubated for 16-20 hours at 37° C., then the Minimal Inhibitory Concentration (MIC) of the test compound is determined visually.
# (§4) Using the methodology described above, examples of the current invention were evaluated for their ability to inhibit the growth of β-lactamase-producing bacteria in the presence of a β-lactam antibiotic.
# (§5) Representative results are shown in Table 4 where A represents an MIC of the fixed β-lactam antibiotic in the presence of >32 µg/mL of a β-lactamase inhibitor of exemplary compounds, B represents the MIC in the presence of between 8 and 32 µg/mL of a β-lactamase inhibitor of exemplary compounds, and C represents the MIC in the presence of ≤4 µg/mL of a β-lactamase inhibitor of exemplary compounds. NT=Not Tested.
# [6] = tested on: K. pneumoniae A-1797 expressing KPC-2 and VIM-4; test: broth microdilution MIC, K. pneumoniae KPC-2 and VIM-4; type: cell-based; details: Fixed Mero (meropenem) 4 μg/mL
# How it was run: as §2
# [7] = tested on: S. aureus MSSA-7 producing penicillinase PC-1; test: broth microdilution MIC, S. aureus PC-1; type: cell-based; details: Fixed Pip (piperacillin) 4 μg/mL
# Excerpt: as §3, §4, §5
# T1 sequence (P0A3M1 22-286): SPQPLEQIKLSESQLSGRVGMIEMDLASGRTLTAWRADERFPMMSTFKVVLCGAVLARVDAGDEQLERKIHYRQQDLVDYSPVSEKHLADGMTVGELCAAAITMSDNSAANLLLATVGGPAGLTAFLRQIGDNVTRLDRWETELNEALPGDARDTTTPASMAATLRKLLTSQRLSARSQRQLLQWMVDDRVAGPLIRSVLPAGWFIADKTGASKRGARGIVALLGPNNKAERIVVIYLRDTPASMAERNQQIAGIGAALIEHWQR
structure (smiles),measurement,setting,value
"O=C(Cc1ccc2c(c1)CNC2)N[C@H]1Cc2cccc(C(=O)O)c2OB1O [Example 64, (R)-3-(2-2,3-Dihydro-1H-isoindol-5-yl-acetylamino)-2-hydroxy-3,4-dihydro-2H-benzo[e][1,2]oxaborinine-8-carboxylic acid]",IC50,SHV-5 β-lactamase,< 100 nM
same,IC50,KPC-2 β-lactamase,< 100 nM
same,IC50,[1],100 to 1000 nM
same,IC50,p99 AmpC β-lactamase,< 100 nM
same,IC50,OXA-1 β-lactamase,< 100 nM
same,"MIC of exemplary compounds in presence of fixed β-lactams, E. coli ESBL4 CTX-M-15",[2],C (C represents the MIC in the presence of ≤4 g/mL of a β-lactamase inhibitor)
same,"MIC of exemplary compounds in presence of fixed β-lactams, E. cl. 144200 p99 AmpC",[3],C (C represents the MIC in the presence of ≤4 g/mL of a β-lactamase inhibitor)
same,"MIC of exemplary compounds in presence of fixed β-lactams, K.P. 156319 KPC-3",[4],C (C represents the MIC in the presence of ≤4 g/mL of a β-lactamase inhibitor)
same,"MIC of exemplary compounds in presence of fixed β-lactams, P. aerug. Ps296 VIM-2",[5],C (C represents the MIC in the presence of ≤4 g/mL of a β-lactamase inhibitor)
same,"MIC of exemplary compounds in presence of fixed β-lactams, K.P. A-1797 KPC-2 VIM-4",[6],B (B represents the MIC in the presence of between 8 and 32 g/mL of a β-lactamase inhibitor)
same,"MIC of exemplary compounds in presence of fixed β-lactams, S. aureus MSSA-7 PC-1",[7],C (C represents the MIC in the presence of ≤4 g/mL of a β-lactamase inhibitor)
"O=C(CCc1cocn1)N[C@H]1Cc2cccc(C(=O)O)c2OB1O [Example 45, (R)-2-Hydroxy-3-(3-oxazol-4-yl-propionylamino)-3,4-dihydro-2H-benzo[e][1,2]oxaborinine-8-carboxylic acid]",IC50,SHV-5 β-lactamase,< 100 nM
same,IC50,KPC-2 β-lactamase,< 100 nM
same,IC50,[1],1000 to 10000 nM
same,IC50,p99 AmpC β-lactamase,< 100 nM
same,IC50,OXA-1 β-lactamase,< 100 nM
same,"MIC of exemplary compounds in presence of fixed β-lactams, E. coli ESBL4 CTX-M-15",[2],C (C represents the MIC in the presence of ≤4 g/mL of a β-lactamase inhibitor)
same,"MIC of exemplary compounds in presence of fixed β-lactams, E. cl. 144200 p99 AmpC",[3],C (C represents the MIC in the presence of ≤4 g/mL of a β-lactamase inhibitor)
same,"MIC of exemplary compounds in presence of fixed β-lactams, K.P. 156319 KPC-3",[4],C (C represents the MIC in the presence of ≤4 g/mL of a β-lactamase inhibitor)
same,"MIC of exemplary compounds in presence of fixed β-lactams, P. aerug. Ps296 VIM-2",[5],C (C represents the MIC in the presence of ≤4 g/mL of a β-lactamase inhibitor)
same,"MIC of exemplary compounds in presence of fixed β-lactams, K.P. A-1797 KPC-2 VIM-4",[6],B (B represents the MIC in the presence of between 8 and 32 g/mL of a β-lactamase inhibitor)
same,"MIC of exemplary compounds in presence of fixed β-lactams, S. aureus MSSA-7 PC-1",[7],C (C represents the MIC in the presence of ≤4 g/mL of a β-lactamase inhibitor)
"CS(=O)(=O)CCC(=O)N[C@H]1Cc2cccc(C(=O)O)c2OB1O [Example 21, (R)-2-Hydroxy-3-(3-methanesulfonyl-propionylamino)-3,4-dihydro-2H-benzo[e][1,2]oxaborinine-8-carboxylic acid]",IC50,SHV-5 β-lactamase,< 100 nM
same,IC50,KPC-2 β-lactamase,< 100 nM
same,IC50,[1],1000 to 10000 nM
same,IC50,p99 AmpC β-lactamase,< 100 nM
same,IC50,OXA-1 β-lactamase,< 100 nM
same,"MIC of exemplary compounds in presence of fixed β-lactams, E. coli ESBL4 CTX-M-15",[2],C (C represents the MIC in the presence of ≤4 g/mL of a β-lactamase inhibitor)
same,"MIC of exemplary compounds in presence of fixed β-lactams, E. cl. 144200 p99 AmpC",[3],C (C represents the MIC in the presence of ≤4 g/mL of a β-lactamase inhibitor)
same,"MIC of exemplary compounds in presence of fixed β-lactams, K.P. 156319 KPC-3",[4],C (C represents the MIC in the presence of ≤4 g/mL of a β-lactamase inhibitor)
same,"MIC of exemplary compounds in presence of fixed β-lactams, P. aerug. Ps296 VIM-2",[5],A (A represents an MIC of the fixed β-lactam antibiotic in the presence of >32 g/mL of a β-lactamase inhibitor)
same,"MIC of exemplary compounds in presence of fixed β-lactams, K.P. A-1797 KPC-2 VIM-4",[6],B (B represents the MIC in the presence of between 8 and 32 g/mL of a β-lactamase inhibitor)
same,"MIC of exemplary compounds in presence of fixed β-lactams, S. aureus MSSA-7 PC-1",[7],C (C represents the MIC in the presence of ≤4 g/mL of a β-lactamase inhibitor)
